Patent US20070238793A1, “Structural carotenoid analogs or derivatives for the modulation of systemic and/or target organ redox status” (priority 2005, published 2007)

Legend:
[1] = tested on: mouse heart (myocardium) redox status; assay: Whole-body time-course PEDRI of TEMPONE nitroxide decay in the myocardial region of treated mice; assay type: in vivo; details: 10 mg/kg daily I.V. for 4 days, TEMPONE probe
Source text: Proton electron double resonance imaging (PEDRI) is a recently developed low-field double magnetic resonance technique (Lurie et al. 2002). The technique uses the Overhauser effect to image the distribution of free radicals in biological samples. Of particular interest is that the technique can be extended to whole animals, allowing systemic redox state analysis as well as individual target organ analysis after therapeutic treatment. The in vivo application of the technique requires a balance between the electron paramagnetic resonance (EPR) irradiation frequency and the magnetic field applied: sufficiently low magnetic field must be utilized that allows penetration of the whole animal, while at the same time limiting nonresonant power deposition in the animal. […]
After the mice were placed in the PEDRI resonator, a bolus injection of 0.55-0.6 mL (normalized to the body weight of the individual animal) of 100 mM TEMPONE solution in PBS was given over 50-55 s through the tail vein. A series of time-course PEDRI measurements were then acquired every 10-15 s after the injection of the nitroxide probe solution, until the image intensity reached a minimum (i.e., no nitroxide signal could be detected). […]

[2] = tested on: superoxide anion signal from PMA-stimulated human polymorphonuclear leukocytes (PMNs); assay: Direct superoxide anion scavenging by EPR spectroscopy (DEPMPO spin trap) in PMA-stimulated isolated human neutrophils; assay type: cell-based; details: millimolar range, water
Method: Leukocyte Isolation and Preparation. Human polymorphonuclear leukocytes (PMNs) were isolated from freshly sampled venous blood of a single volunteer by Percoll density gradient centrifugation as described previously. Briefly, each 10 mL of whole blood was mixed with 0.8 mL of 0.1 M EDTA and 25 mL of saline. The diluted blood was then layered over 9 mL of Percoll at a specific density of 1.080 g/mL. After centrifugation at 400×g for 20 min at 20° C., the plasma, mononuclear cell, and Percoll layers were removed. Erythrocytes were subsequently lysed by addition of 18 mL of ice-cold water for 30 s, followed by 2 mL of 10×PIPES buffer (25 mM PIPES, 110 mM NaCl, and 5 mM KCl, titrated to pH 7.4 with NaOH). […] Afterward, PMNs were counted by light microscopy on a hemocytometer. […]
EPR Measurements. […] The microwave frequency was measured with a Model 575 microwave counter (EIP Microwave, Inc., San Jose, Calif.). […]
Instrument settings used in the spin-trapping experiments were as follows: modulation amplitude, 0.32 G; time constant, 0.16 s; scan time, 60 s; modulation frequency, 100 kHz; microwave power, 20 milliwatts; and microwave frequency, 9.76 GHz. The samples were placed in a quartz EPR flat cell, and spectra were recorded. The component signals in the spectra were identified and quantified as reported previously.

Row | Molecule | rate of nitroxide reduction in the mouse heart compared to untreated control animals [1] | half-time (t) for the decay of the nitroxide signal intensity, myocardial region ([1]; mean±SEM, n=4, untreated 0.49±0.08) [min] | aqueous superoxide scavenging profile (in words) [2]
1 | CC1=C(/C=C/C(C)=C/C=C/C(C)=C/C=C/C=C(C)/C=C/C=C(C)/C=C/C2=C(C)C(=O)C(OC(=O)CCC(=O)O)CC2(C)C)C(C)(C)CC(OC(=O)CCC(=O)O)C1=O (stereo not drawn) [Cardax™, disodium disuccinate derivative of synthetic astaxanthin] | slower mean rate of nitroxide reduction | 0.99 ± 0.14 | 
2 | 3,3′-Diphosphoryloxy-β,ε-carotene sodium salt [compound 9] |  |  | slightly increased scavenging
